Among the data in patent publication US12624034B2, “Non-covalent modifiers of AKT1 and uses thereof” (Terremoto Biosciences, Inc., priority 2023, dated 2026) are IC50 values, retold here.

Like-named read-outs stand apart in the source and are kept apart here. A value given as a limit tells only on which side of the number the result lay.

As usually defined, the IC50 is the point on the concentration scale where inhibition reaches its midpoint.

The target of one assay is T1, AKT1 WT (Homo sapiens, UniProt P31749).
T1 construct: expressed in transfected cells; host or cells: HEK293
Briefly: Live cell AKT1 WT target engagement by NanoBRET competitive probe displacement in HEK293 cells. The class given is binding. Conditions: 2 h at 37° C. A general note: BRET reads energy transfer from a luciferase to a nearby fluorophore.

The next assay has as its target T2, AKT2 (Homo sapiens, UniProt P31751).
T2 construct: expressed in transfected cells; host or cells: HEK293
The experiment in a line: Live cell AKT2 target engagement by NanoBRET competitive probe displacement in HEK293 cells. The assay is classed as binding. The note with it: 2 h at 37° C.

Where [1] appears, read: NanoBRET live cell target engagement, HEK293 cells, read-out: AKT1 WT IC50.
Where [2] appears, read: NanoBRET live cell target engagement, HEK293 cells, read-out: AKT2 IC50.
[3] abbreviates: NanoBRET competitive probe displacement, live HEK293 cells, read-out: AKT1 WT IC50.
Where [4] appears, read: NanoBRET competitive probe displacement, live HEK293 cells, read-out: AKT2 IC50.

T1 sequence (P31749 whole entry): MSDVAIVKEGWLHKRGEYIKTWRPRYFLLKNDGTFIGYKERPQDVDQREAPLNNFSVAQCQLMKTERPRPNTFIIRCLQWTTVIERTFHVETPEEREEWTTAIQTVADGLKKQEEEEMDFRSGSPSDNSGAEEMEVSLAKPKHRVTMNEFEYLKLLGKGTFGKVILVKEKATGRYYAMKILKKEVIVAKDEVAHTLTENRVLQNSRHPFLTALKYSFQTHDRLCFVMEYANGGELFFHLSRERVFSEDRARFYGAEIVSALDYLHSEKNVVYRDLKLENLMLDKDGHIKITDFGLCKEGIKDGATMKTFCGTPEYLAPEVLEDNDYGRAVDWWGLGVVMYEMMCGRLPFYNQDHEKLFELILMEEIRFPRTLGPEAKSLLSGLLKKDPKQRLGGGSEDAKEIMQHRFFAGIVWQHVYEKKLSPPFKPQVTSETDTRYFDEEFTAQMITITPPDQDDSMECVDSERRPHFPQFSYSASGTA
T2 sequence (P31751 whole entry): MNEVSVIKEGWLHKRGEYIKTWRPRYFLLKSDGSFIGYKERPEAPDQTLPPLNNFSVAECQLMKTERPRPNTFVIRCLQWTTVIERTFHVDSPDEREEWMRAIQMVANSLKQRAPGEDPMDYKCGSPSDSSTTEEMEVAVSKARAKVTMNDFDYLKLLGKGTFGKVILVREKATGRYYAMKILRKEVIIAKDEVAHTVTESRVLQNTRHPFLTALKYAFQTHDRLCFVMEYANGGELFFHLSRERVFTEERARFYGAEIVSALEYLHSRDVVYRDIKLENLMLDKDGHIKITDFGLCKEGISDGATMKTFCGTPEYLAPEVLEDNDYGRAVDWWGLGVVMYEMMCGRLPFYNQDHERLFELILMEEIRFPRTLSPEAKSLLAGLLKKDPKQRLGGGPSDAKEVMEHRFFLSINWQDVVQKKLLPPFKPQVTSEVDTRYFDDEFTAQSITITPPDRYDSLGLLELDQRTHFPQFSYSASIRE

`Cc1cc(C(=O)N[C@H]2CCc3cc(-n4c(-c5cccnc5N)nc5ccc(-n6cccn6)nc54)ccc32)sn1` [Compound 375]: the half-maximal inhibitory concentration (IC50) at AKT1 WT (setting [1]) is 7.52 nM; on AKT2 (setting [2]), 68.9 nM.

On to `Nc1ncccc1-c1nc2ccc(-n3cccn3)nc2n1-c1ccc2c(c1)CC[C@@H]2NC(=O)c1ccc(F)nc1` [Compound 264], for which the IC50 on AKT1 WT (setting [1]) worked out at 9.54 nM; at AKT2 (setting [2]) it was 163 nM.

Regarding `Nc1ncccc1-c1nc2ccc(-n3cccn3)nc2n1-c1ccc2c(c1)CC[C@@H]2N[C@@H]1CCN(c2ccccc2)C1` [Compound 469], the figures for the IC50 at AKT1 WT (setting [3]) and on AKT2 (setting [4]) were 93.4 nM and 1130 nM, respectively.

Regarding `Nc1ncccc1-c1nc2ccc(-n3ccc(OC(F)F)n3)nc2n1-c1ccc2c(c1)CC(F)[C@@H]2NC1CCN(C(=O)C2CC2)CC1` (some centres unmarked) [Compound 525], the half-maximal inhibitory concentration (IC50) at AKT1 WT (setting [3]) was 33.5 nM; at AKT2 (setting [4]), 1330 nM.

For `Nc1ncccc1-c1nc2ccc(-n3cccn3)nc2n1-c1ccc2c(c1)CC[C@@H]2NC1COC1` [Compound 111], the figures for the IC50 on AKT1 WT (setting [1]) and on AKT2 (setting [2]) were 178 nM and 4500 nM, respectively.

With `Cc1cc(-n2cccn2)nc2c1nc(-c1cccnc1N)n2-c1ccc2c(c1)CC[C@@H]2NC(=O)c1ccc(C(F)F)nc1` [Compound 101], the IC50 was 11.9 nM on AKT1 WT (setting [1]) and 8.02 nM at AKT2 (setting [2]).

`Nc1ncccc1-c1nc2ccc(-n3cccn3)nc2n1-c1ccc2c(c1)CC[C@@H]2NC1CC2(CCCN2c2ccccn2)C1` (some centres unmarked) [Compound 465]: the half-inhibitory concentration (IC50) on AKT1 WT (setting [3]) was greater than 1000 nM; at AKT2 (setting [4]), greater than 10000 nM.

As for `Cc1ncc(C(=O)N[C@H]2CCc3cc(-n4c(-c5cccnc5N)nc5ccc(-n6cccn6)nc54)ccc32)c(C)n1` [Compound 96], the figures for the IC50 on AKT1 WT (setting [1]) and at AKT2 (setting [2]) were 18.6 nM and 94.7 nM, respectively.

Consider `Nc1ncccc1-c1nc2ccc(-n3cccn3)nc2n1-c1ccc2c(c1)CC[C@@H]2NC1CCS(=O)(=O)CC1` [Compound 89], for which the figures for the IC50 on AKT1 WT (setting [1]) and at AKT2 (setting [2]) were 459 nM and greater than 10000 nM, respectively.

Turning to `Nc1ncccc1-c1nc2ccc(-n3cccn3)nc2n1-c1ccc2c(c1)CC[C@@H]2NC(=O)c1ccc2ccnn2c1` [Compound 290], the IC50 on AKT1 WT (setting [1]) was determined as 3.83 nM; on AKT2 (setting [2]), 18.9 nM.

For `Nc1ncccc1-c1nc2ccc(-n3cccn3)nc2n1-c1ccc2c(c1)CC(F)[C@@H]2NC1CCc2cnccc21` (some centres unmarked) [Compound 481], the figures for the 50% inhibitory concentration (IC50) on AKT1 WT (setting [3]) and at AKT2 (setting [4]) were 13.9 nM and 278 nM, respectively.

In the case of `Cc1ccc(C(=O)N[C@H]2CCc3cc(-n4c(-c5cccnc5N)nc5ccc(-n6cccn6)nc54)ccc32)c(C)n1` [Compound 69], the figures for the IC50 at AKT1 WT (setting [1]) and on AKT2 (setting [2]) were 10.9 nM and 71.6 nM, respectively.

Regarding `Cc1ncc(C(=O)N[C@H]2CCc3cc(-n4c(-c5cccnc5N)nc5ccc(-n6cccn6)nc54)ccc32)s1` [Compound 120], the half-maximal inhibitory concentration (IC50) at AKT1 WT (setting [1]) turned out to be 5.61 nM; on AKT2 (setting [2]) it was 103 nM.

As to `COCc1cc(C(=O)N[C@H]2CCc3cc(-n4c(-c5cccnc5N)nc5ccc(-n6cccn6)nc54)ccc32)ccc1O` [Compound 410, (S)—N-(5-(2-(2-aminopyridin-3-yl)-5-(1H-pyrazol-1-yl)-3H-imidazo[4,5-b]pyridin-3-yl)-2,3-dihydro-1H-inden-1-yl)-4-hydroxy-3-(methoxymethyl)benzamide], the results for the IC50 at AKT1 WT (setting [3]) and on AKT2 (setting [4]) were 7.43 nM and 57.6 nM, respectively.

Regarding `Nc1ncccc1-c1nc2ccc(-n3cccn3)nc2n1-c1ccc2c(c1)CC[C@@H]2n1cc(-c2ccccc2)nn1` [Compound 155, (S)-3-(3-(1-(4-phenyl-1H-1,2,3-triazol-1-yl)-2,3-dihydro-1H-inden-5-yl)-5-(1H-pyrazol-1-yl)-3H-imidazo[4,5-b]pyridin-2-yl)pyridin-2-amine], the IC50 at AKT1 WT (AKT1 WT IC50 (nM), NanoBRET live cell target engagement, HEK293 cells) came out at 16.5 nM; at AKT2 (AKT2 IC50 (nM), NanoBRET live cell target engagement, HEK293 cells) it was 197 nM.

In the case of `Nc1ncccc1-c1nc2ccc(-n3cccn3)nc2n1-c1ccc2c(c1)CC[C@@H]2NC1CCN(C(=O)C2CC2)CC1F` (some centres unmarked) [Compound 443], the IC50 at AKT1 WT (setting [3]) came out at 23.2 nM; on AKT2 (setting [4]), 940 nM.

As to `Cc1ncccc1C(=O)N[C@H]1CCc2cc(-n3c(-c4cccnc4N)nc4ccc(-c5ncco5)nc43)ccc21` [Compound 229], the IC50 is 95.9 nM on AKT1 WT (setting [1]) and 2850 nM at AKT2 (setting [2]).

`Cc1ccc(C(=O)N[C@H]2CCc3cc(-n4c(-c5ccccc5)nc5ccc(-n6cccn6)nc54)ccc32)cn1` [Compound 400]: the IC50 on AKT1 WT (setting [3]) turned out to be 14.4 nM; at AKT2 (setting [4]), 2100 nM.

Take `CC(C)(O)c1cn([C@H]2CCc3cc(-n4c(-c5cccnc5N)nc5ccc(-n6cccn6)nc54)ccc32)nn1` [Compound 219]: the IC50 worked out at 119 nM at AKT1 WT (setting [1]) and 6640 nM on AKT2 (setting [2]).

Turning to `COC1CCN(c2ccn(-c3ccc4nc(-c5cccnc5N)n(-c5ccc6c(c5)CC[C@@H]6NC5CCN(C(=O)C6CC6)CC5)c4n3)n2)CC1` [Compound 564], the half-maximal inhibitory concentration (IC50) at AKT1 WT (setting [3]) was found to be 2.28 nM; on AKT2 (setting [4]) it was 84.4 nM.

In the case of `Nc1ncccc1-c1nc2ccc(-n3cccn3)nc2n1-c1ccc2c(c1)CC[C@@H]2NC(=O)c1ccnc(OC2CC2)c1` [Compound 201], the concentration for half-maximal inhibition (IC50) was 9.27 nM at AKT1 WT (setting [1]) and 66.5 nM at AKT2 (setting [2]).

In the case of `Nc1ncccc1-c1nc2ccc(-n3cccn3)nc2n1-c1ccc2c(c1)CC[C@@H]2NC1CC2(CCN(c3ccccn3)CC2)C1` [Compound 449], the figures for the 50% inhibitory concentration (IC50) at AKT1 WT (setting [3]) and at AKT2 (setting [4]) were 79.7 nM and 1200 nM, respectively.

Regarding `Nc1ncccc1-c1nc2ccc(-n3cccn3)nc2n1-c1ccc2c(c1)CC[C@@H]2NC1CC2(CCN(c3ccccn3)C2)C1` (stereo partly drawn) [Compound 447, N-[(1S)-5-[2-(2-aminopyridin-3-yl)-5-(pyrazol-1-yl)imidazo[4,5-b]pyridin-3-yl]-2,3-dihydro-1H-inden-1-yl]-6-(pyridin-2-yl)-6-azaspiro[3.4]octan-2-amine], the results for the IC50 at AKT1 WT (setting [3]) and on AKT2 (setting [4]) were 78.5 nM and 1490 nM, respectively.

For the compound `Cc1cnc(-c2ccc3nc(-c4cccnc4N)n(-c4ccc5c(c4)CC[C@@H]5NC(=O)c4nccnc4C)c3n2)s1` [Compound 243, (S)—N-(5-(2-(2-aminopyridin-3-yl)-5-(5-methylthiazol-2-yl)-3H-imidazo[4,5-b]pyridin-3-yl)-2,3-dihydro-1H-inden-1-yl)-3-methylpyrazine-2-carboxamide], the 50% inhibitory concentration (IC50) is 75 nM on AKT1 WT (setting [1]) and 8230 nM on AKT2 (setting [2]).

Turning to `Nc1ncccc1-c1nc2ccc(-n3cccn3)nc2n1-c1ccc2c(c1)CC[C@@H]2NC(=O)c1ccc(O)c(Cl)c1` [Compound 258], the 50% inhibitory concentration (IC50) was found to be 3.06 nM on AKT1 WT (setting [1]) and 60.3 nM at AKT2 (setting [2]).

For the compound `Cc1nccnc1C(=O)N[C@H]1CCc2cc(-n3c(-c4cccnc4N)nc4ccc(-c5ncco5)nc43)ccc21` [Compound 270], the half-inhibitory concentration (IC50) was 535 nM at AKT1 WT (setting [1]) and greater than 10000 nM at AKT2 (setting [2]).

Take `Nc1ncccc1-c1nc2ccc(-n3cccn3)nc2n1-c1ccc2c(c1)CC[C@@H]2NC1CCN(C(=O)[C@H]2CC2(F)F)CC1` [Compound 476]: the IC50 is 209 nM at AKT1 WT (setting [3]) and greater than 10000 nM at AKT2 (setting [4]).

In the case of `COc1cc(C(=O)N[C@H]2CCc3cc(-n4c(-c5cccnc5N)nc5ccc(-n6cccn6)nc54)ccc32)n(C)n1` [Compound 158], the IC50 on AKT1 WT (setting [1]) came out at 13.5 nM; at AKT2 (setting [2]), 124 nM.

For the compound `COCCOc1cc(C(=O)N[C@H]2CCc3cc(-n4c(-c5cccnc5N)nc5ccc(-n6cccn6)nc54)ccc32)ccn1` [Compound 203], the results for the IC50 at AKT1 WT (setting [1]) and on AKT2 (setting [2]) were 10.5 nM and 99.6 nM, respectively.

As for `COc1cccc(C(=O)N[C@H]2CCc3cc(-n4c(-c5cccnc5N)nc5ccc(-n6cccn6)nc54)ccc32)c1` [Compound 335], the IC50 came out at 5.88 nM at AKT1 WT (setting [1]) and 31.5 nM on AKT2 (setting [2]).

Consider `N[C@H]1CCc2cc(-n3c(-c4ccccc4F)nc4ccc(-n5cccn5)nc43)ccc21` [Compound 527], for which the IC50 on AKT1 WT (setting [3]) came to 19.5 nM; on AKT2 (setting [4]), 1150 nM.

In the case of `Nc1ncccc1-c1nc2ccc(-n3cccn3)nc2n1-c1ccc2c(c1)CC[C@@H]2NC1Cc2cccnc2C1` (some centres unmarked) [Compound 531], the IC50 was found to be 50.6 nM at AKT1 WT (setting [3]) and 1280 nM at AKT2 (setting [4]).

For `Cc1ccc(C(=O)N[C@H]2CCc3cc(-n4c(-c5ccccc5)nc5ccc(-c6ccn(C7CC7)n6)nc54)ccc32)cn1` [Compound 431, (S)—N-(5-(5-(1-cyclopropyl-1H-pyrazol-3-yl)-2-phenyl-3H-imidazo[4,5-b]pyridin-3-yl)-2,3-dihydro-1H-inden-1-yl)-6-methylnicotinamide], the half-inhibitory concentration (IC50) on AKT1 WT (setting [3]) stood at 16.7 nM; on AKT2 (setting [4]) it was 900 nM.

On to `Nc1ncccc1-c1nc2ccc(-n3cccn3)nc2n1-c1ccc2c(c1)CC[C@@H]2NC(=O)c1cnc2c(c1)COC2` [Compound 106], for which the figures for the half-inhibitory concentration (IC50) on AKT1 WT (setting [1]) and at AKT2 (setting [2]) were 6.39 nM and 36 nM, respectively.

Turning to `Nc1ncccc1-c1nc2ccc(-n3cccn3)nc2n1-c1ccc2c(c1)CC[C@@H]2NC(=O)c1ccc(F)c(O)c1` [Compound 293], the IC50 is 12.3 nM at AKT1 WT (setting [1]) and 83.8 nM at AKT2 (setting [2]).

Consider `Cc1ccc(C(=O)N[C@H]2CCc3cc(-n4c(-c5cccnc5N)nc5c(C#N)cc(-n6nccn6)nc54)ccc32)cn1` [Compound 547], for which the concentration for half-maximal inhibition (IC50) was found to be 28.3 nM at AKT1 WT (setting [3]) and 1740 nM on AKT2 (setting [4]).

Consider `COc1ccn(-c2ccc3nc(-c4cccnc4N)n(-c4ccc5c(c4)CC[C@@H]5NC4CCN(C(=O)C5CC5)CC4F)c3n2)n1` (single isomer, unassigned) [Compound 514], for which the half-maximal inhibitory concentration (IC50) was found to be 26.4 nM on AKT1 WT (setting [3]) and 1130 nM at AKT2 (setting [4]).

With `Nc1ncccc1-c1nc2ccc(-n3cccn3)nc2n1-c1ccc2c(c1)CC(F)[C@@H]2NC1CN(c2ccccn2)C1` (some centres unmarked) [Compound 208], the IC50 at AKT1 WT (setting [1]) was 32.4 nM; at AKT2 (setting [2]), 1030 nM.

Regarding `COc1ccn(-c2ccc3nc(-c4cccnc4N)n(-c4ccc5c(c4)CC(F)[C@@H]5NC4CN(C(=O)C5CC5)C4)c3n2)n1` (some centres unmarked) [Compound 493], the 50% inhibitory concentration (IC50) at AKT1 WT (setting [3]) is 57.6 nM; on AKT2 (setting [4]) it was 973 nM.

Take `Cn1nc(C(=O)N[C@H]2CCc3cc(-n4c(-c5cccnc5N)nc5ccc(-n6cccn6)nc54)ccc32)c2cccnc21` [Compound 163]: the IC50 at AKT1 WT (setting [1]) amounted to 20.4 nM; at AKT2 (setting [2]), 363 nM.
